Holding throughout (assay): microbe, parasite or virus in culture
Common to all, as to type: cell-based
Holding throughout (conditions): Human immunodeficiency virus 1, TZM-bl

The test system of assay [1] is INSTI-resistant HIV-1 strain 11849.
The subject of assay [2] is NNRTI-resistant HIV-1 strain 12243.
Assay [3] deals with NNRTI-resistant HIV-1 strain 12241.
The test system of assay [4] is INSTI-resistant HIV-1 strain 11847.

In the case of `Cc1[nH]c2ccc(-c3nnc(SCC(=O)N4CCCCC4)o3)cc2c1C` [Compound 9, 2-((5-(2,3-Dimethyl-1H-indol-5-yl)-1,3,4-oxadiazol-2-yl)thio)-1-(piperidin-1-yl)ethan-1-one], the EC50 (usually the concentration at which the effect is half-maximal) stood at 80 ± 20 nM in assay [1], 60 nM in assay [2], 70 nM in assay [3] and 70 nM in assay [4].

As for `Cc1[nH]c2ccc(-c3nnc(SCC(=O)N4CCCC4)o3)cc2c1C` [Compound 13, 2-((5-(2,3-Dimethyl-1H-indol-5-yl)-1,3,4-oxadiazol-2-yl)thio)-1-(pyrrolidin-1-yl)ethan-1-one], the EC50 in assay [1] amounted to 230 ± 20 nM; in assay [2] it was 180 ± 10 nM; in assay [3] it was 200 nM; in assay [4] it was 140 ± 10 nM.

As for `C[C@@H]1CCO[C@H]2Cn3cc(C(=O)NCc4ccc(F)cc4F)c(=O)c(O)c3C(=O)N12` [DTG, dolutegravir, reference compound], the EC50 was 10 nM in assay [1] and 10 ± 10 nM in assay [4].

With `O=C1Nc2ccc(Cl)cc2[C@@](C#CC2CC2)(C(F)(F)F)O1` [EFV, efavirenz, reference compound], the values for the EC50 in assay [2] and in assay [3] were 15500 ± 3390 nM and 4360 ± 80 nM, respectively.

The record behind these values is article PMC11459959, “Discovery of new acetamide derivatives of 5-indole-1,3,4-oxadiazol-2-thiol as inhibitors of HIV-1 Tat-mediated viral transcription” (Antimicrobial Agents and Chemotherapy, 2024).
